Patent US20230271938A1, “BENZIMIDAZOLES FOR USE IN THE TREATMENT OF CANCER AND INFLAMMATORY DISEASES” (Capella Therapeutics, Inc., priority 2015, published 2023)

How the values were obtained:
Type in all cases: cell-based
[1] = tested on: HCC827 human NSCLC adenocarcinoma cells (mutant ERBB1, deletion of E746-A759 in exon 19); assay: Cell proliferation assay, HCC827; settings: for Ratio (Wild-type ERBB1/Mutant ERBB1) HEKn/HCC827: GI50 ratio HEKn/HCC827; for GI50: Homo sapiens, HCC827 cells, 72 hrs; for Ratio (Wild-type ERBB1/Mutant ERBB1) A431/HCC827: GI50 ratio A431/HCC827
Procedure: (§1) The biological activity of a test compound was determined using cell proliferation assays. The activity against wild-type ERBB 1 was determined using A431 human epidermoid carcinoma cells (ATCC) and human epidermal keratinocytes, neonatal, or HEKn cells (ATCC).
(§2) A431 cells were grown in DMEM (Invitrogen) supplemented with 10% FBS (Lonza), 1% penicillin-streptomycin, and 2 mM glutamine (Invitrogen). HEKn cells were grown in EPILIFE® (Invitrogen) supplemented with HKGS (Invitrogen). HCC827 and H1975 were cultured in RPMI1640 supplemented with 10% FBS (Lonza), 1% penicillin-streptomycin, and 2 mM glutamine (Invitrogen). Cells were maintained and propagated at 37° C. and 5% CO2 in a humidified cell culture incubator. Aliquots of cells from early passages were preserved for liquid nitrogen storage. Frozen vials of cells were thawed at 37° C. water bath. Cells were spun to remove freezing medium. The newly revived frozen cells were adapted in culture for 10 days before used for compound testing. Cells used in the assay were less than 20 subculture passages or 3 months in culture.
(§3) The test compounds were dissolved in dimethylsulfoxide (DMSO) and stored at -20° C. before testing. […] The cells were placed in a culture incubator overnight. Next day, test compounds in DMSO were added to the cells and placed back in the culture incubator for 72 hrs. In the meantime, the cell numbers at time zero of the compound treatment (T0) was measured by ENERCOUNT® (Codex BioSolutions). At the end of the compound treatment, the cell numbers were again measured by EnerCount as T72 values. The untreated controls (Ctrl) were cell numbers recorded from the 0.1% DMSO treatment. The percent growth inhibition by the test compound was calculated by the formula: (1- (T72-T0)/(Ctrl-T0)) x 100.
(§4) The results are summarized in Tables 1 and 2, wherein A represents a value no greater than 500 nM, B represents a value greater than 500 nM but no greater than 1 µM, C represents a value greater than 1 µM but no greater than 5 µM, and D represents a value greater than 5 µM; and wherein A′ represents a ratio of greater than 10, B′ represents a ratio of no greater than 10 but no less than 5, C′ represents a ratio of no greater than 5 but no less than 2, and D′ represents a ratio of no greater than 2.

[2] = tested on: H1975 human NSCLC adenocarcinoma cells (drug-resistant mutant ERBB1, T790M in-cis with L858R); assay: Cell proliferation assay, H1975; settings: for Ratio (Wild-type ERBB1/Mutant ERBB1) HEKn/H1975: GI50 ratio HEKn/H1975; for Ratio (Wild-type ERBB1/Mutant ERBB1) A431/H1975: GI50 ratio A431/H1975; for GI50: Homo sapiens, NCI-H1975, H1975 cells, 72 hrs
Procedure: as §1, §2, §3, §4

[3] = tested on: human epidermal keratinocytes, neonatal, or HEKn cells (wild-type ERBB1); assay: Cell proliferation assay, HEKn; settings: Keratinocyte, 72 hrs
Procedure: as §1, §2, §3, §4

[4] = tested on: A431 human epidermoid carcinoma cells (wild-type ERBB1); assay: Cell proliferation assay, A431; settings: A-431, 72 hrs
Procedure: as §1, §2, §3, §4

[5] = numeric values, reference compounds

Structure (SMILES)	Ratio (Wild-type ERBB1/Mutant ERBB1) HEKn/HCC827 [1]	GI50 [1, 5] [nM]	Ratio (Wild-type ERBB1/Mutant ERBB1) HEKn/H1975 [2]	GI50 [3, 5] [nM]	Ratio (Wild-type ERBB1/Mutant ERBB1) A431/HCC827 [1]	GI50 [1] [nM]	GI50 [4] [nM]	Ratio (Wild-type ERBB1/Mutant ERBB1) A431/H1975 [2]	GI50 [2] [nM]	GI50 [3] [nM]
C=CC(=O)Nc1cccc(Nc2nc(Nc3ccc(N4CCN(C(C)=O)CC4)cc3OC)ncc2C(F)(F)F)c1 [CO-1686]	A′ (A′ represents a ratio of greater than 10)	32	A′ (A′ represents a ratio of greater than 10)	2500						
C=CC(=O)N1CCCC[C@@H](n2c(NC(=O)c3ccnc(C)c3)nc3cccc(OC4CCN(CC)CC4)c32)C1 [Compound A1, (R)-N-(1-(1-Acryloylazepan-3-yl)-7-((1-ethylpiperidin-4-yl)oxy)-1H-benzo[d]imidazol-2-yl)-2-methylisonicotinamide]	A′ (A′ represents a ratio of greater than 10)		A′ (A′ represents a ratio of greater than 10)		A′ (A′ represents a ratio of greater than 10)	< 500	< 500	A′ (A′ represents a ratio of greater than 10)	< 500	1000 to 5000
C=CC(=O)N1CCC(Oc2cccc3nc(NC(=O)c4ccnc(C)c4)n([C@@H]4CCCCN(C(=O)C=C)C4)c23)CC1 [Compound A3, (R)-N-(1-(1-acryloylazepan-3-yl)-7-((1-acryloylpiperidin-4-yl)oxy)-1H-benzo[d]imidazol-2-yl)-2-methylisonicotinamide]	A′ (A′ represents a ratio of greater than 10)		A′ (A′ represents a ratio of greater than 10)		A′ (A′ represents a ratio of greater than 10)	< 500	> 5000	B′ (B′ represents a ratio of no greater than 10 but no less than 5)	< 500	1000 to 5000
C=CC(=O)N1CCCC[C@@H](n2c(NC(=O)c3ccnc(C)c3)nc3cc(OC(F)(F)F)cc(Cl)c32)C1 [Compound A4, (R)-N-(1-(1-Acryloylazepan-3-yl)-7-chloro-5-(trifluoromethoxy)-1H-benzo[d]imidazol-2-yl)-2-methylisonicotinamide]	A′ (A′ represents a ratio of greater than 10)		C′ (C′ represents a ratio of no greater than 5 but no less than 2)		A′ (A′ represents a ratio of greater than 10)	< 500	1000 to 5000	C′ (C′ represents a ratio of no greater than 5 but no less than 2)	< 500	1000 to 5000
Cc1cc(C(=O)Nc2nc3cc(OC(F)(F)F)cc(Cl)c3n2[C@@H]2CCCCN(C(=O)/C=C/CN(C)C)C2)ccn1 [Compound A5, (R,E)-N-(7-Chloro-1-(1-(4-(dimethylamino)but-2-enoyl)azepan-3-yl)-5-(trifluoromethoxy)-1H-benzo[d]imidazol-2-yl)-2-methylisonicotinamide]	A′ (A′ represents a ratio of greater than 10)		A′ (A′ represents a ratio of greater than 10)		A′ (A′ represents a ratio of greater than 10)	< 500	1000 to 5000	C′ (C′ represents a ratio of no greater than 5 but no less than 2)	< 500	1000 to 5000
C=CC(=O)N1CCCC[C@@H](n2c(NC(=O)c3ccnc(C(F)(F)F)c3)nc3ccc4c(c32)OCCO4)C1 [Compound B1-A, (R)-N-(1-(1-acryloylazepan-3-yl)-7,8-dihydro-1H-[1,4]dioxino[2′,3′:3,4]benzo[1,2-d]imidazol-2-yl)-2-(trifluoromethyl)isonicotinamide]						< 500	1000 to 5000		< 500	> 5000
C=CC(=O)N1CCCC[C@@H](n2c(NC(=O)c3ccnc(C)c3)nc3ccc4c(c32)OCCO4)C1 [Compound C1-A, (R)-N-(1-(1-acryloylazepan-3-yl)-7,8-dihydro-1H-[1,4]dioxino[2′,3′:3,4]benzo[1,2-d]imidazol-2-yl)-2-methylisonicotinamide]						< 500	1000 to 5000		< 500	1000 to 5000
C=CC(=O)N1CCCC[C@@H](n2c(NC(=O)c3ccnc(OC)c3)nc3ccc4c(c32)OCCO4)C1 [Compound C2-A, (R)-N-(1-(1-acryloylazepan-3-yl)-7,8-dihydro-1H-[1,4]dioxino[2′,3′:3,4]benzo[1,2-d]imidazol-2-yl)-2-methoxyisonicotinamide]						< 500	1000 to 5000		< 500	1000 to 5000
